Measured values taken from ChEMBL document CHEMBL3774368, “1,2,4-Triazolyl octahydropyrrolo[2,3-b]pyrroles: A new series of potent and selective dopamine D3 receptor antagonists” (Bioorg Med Chem, 2016).
The source made the active and inactive calls. The rule behind the calls is not given here.

Legend:
[1] = species: Homo sapiens; assay: Selectivity ratio of IC50 for human ERG to Ki for human dopamine D3 receptor
[2] = target: D(3) dopamine receptor (Homo sapiens, UniProt P35462); assay: Displacement of [3H]-spiperone from human dopamine D3 receptor expressed in CHO-K1 cell membranes after 90 mins by liquid scintillation counter method
[3] = target: T1, Muscarinic acetylcholine receptor M1 (Homo sapiens, UniProt P11229); assay: Antagonist activity at recombinant human muscarinic M1 receptor expressed in CHO-K1 cells assessed as inhibition of acetylcholine induced calcium mobilization preincubated for 10 mins followed by acetylcholine addition measured after 1 hr by fluo-4 AM dye-based FLIPR assay; assay type: functional, cell-based
T1 sequence (P11229 whole entry): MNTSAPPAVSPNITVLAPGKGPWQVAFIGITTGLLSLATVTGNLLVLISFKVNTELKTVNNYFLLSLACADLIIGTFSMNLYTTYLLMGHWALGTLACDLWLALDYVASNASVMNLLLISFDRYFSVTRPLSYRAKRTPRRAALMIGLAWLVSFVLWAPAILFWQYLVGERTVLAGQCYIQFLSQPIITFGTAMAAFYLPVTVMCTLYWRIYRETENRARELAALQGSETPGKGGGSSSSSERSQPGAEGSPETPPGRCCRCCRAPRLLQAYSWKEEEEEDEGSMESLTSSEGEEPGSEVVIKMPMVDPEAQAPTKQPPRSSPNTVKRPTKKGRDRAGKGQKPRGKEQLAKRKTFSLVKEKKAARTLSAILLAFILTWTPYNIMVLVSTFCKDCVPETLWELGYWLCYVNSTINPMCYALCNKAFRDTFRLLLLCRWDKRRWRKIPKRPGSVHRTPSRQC

[4] = target: Muscarinic acetylcholine receptor M3 (Homo sapiens, UniProt P20309); assay: Antagonist activity at recombinant human muscarinic M3 receptor expressed in CHO-K1 cells assessed as inhibition of acetylcholine induced calcium mobilization preincubated for 10 mins followed by acetylcholine addition measured after 1 hr by fluo-4 AM dye-based FLIPR assay; assay type: functional, cell-based
[5] = Solubility of compound; assay type: physicochemical
[6] = target: T2, Cytochrome P450 1A2 (Homo sapiens, UniProt P05177); assay: Inhibition of recombinant human CYP1A2 expressed in baculosomes preincubated for 10 mins followed by cofactor addition measured every minute for 10 mins using ethoxyresorufin as substrate by CYPEX assay
T2 sequence (P05177 whole entry): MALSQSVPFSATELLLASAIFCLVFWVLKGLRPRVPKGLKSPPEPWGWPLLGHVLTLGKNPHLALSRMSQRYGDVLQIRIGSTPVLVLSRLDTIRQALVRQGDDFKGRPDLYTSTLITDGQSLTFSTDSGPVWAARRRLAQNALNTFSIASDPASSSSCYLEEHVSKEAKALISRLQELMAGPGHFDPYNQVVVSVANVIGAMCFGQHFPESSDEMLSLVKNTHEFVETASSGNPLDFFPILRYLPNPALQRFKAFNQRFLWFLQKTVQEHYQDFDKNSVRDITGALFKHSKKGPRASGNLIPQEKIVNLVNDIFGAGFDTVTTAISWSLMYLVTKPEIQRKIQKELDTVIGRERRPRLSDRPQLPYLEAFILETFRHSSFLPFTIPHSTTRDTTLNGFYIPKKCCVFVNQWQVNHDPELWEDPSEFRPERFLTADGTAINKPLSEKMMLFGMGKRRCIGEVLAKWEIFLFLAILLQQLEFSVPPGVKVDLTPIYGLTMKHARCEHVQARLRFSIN

[7] = target: Cytochrome P450 2C9 (Homo sapiens, UniProt P11712); assay: Inhibition of recombinant human CYP2C9 expressed in baculosomes preincubated for 10 mins followed by cofactor addition measured every minute for 10 mins using 7-methoxy-4-trifluoromethylcoumarin-3-acetic acid as substrate by CYPEX assay
[8] = target: Cytochrome P450 2C19 (Homo sapiens, UniProt P33261); assay: Inhibition of recombinant human CYP2C19 expressed in baculosomes preincubated for 10 mins followed by cofactor addition measured every minute for 10 mins using 3-butyryl-7-methoxycoumarin as substrate by CYPEX assay
[9] = target: Cytochrome P450 2D6 (Homo sapiens, UniProt P10635); assay: Inhibition of recombinant human CYP2D6 expressed in baculosomes preincubated for 10 mins followed by cofactor addition measured every minute for 10 mins using 4-methylaminomethyl-7-methoxycoumarin as substrate by CYPEX assay
[10] = target: T3, Cytochrome P450 3A4 (Homo sapiens, UniProt P08684); assay: Inhibition of recombinant human CYP3A4 expressed in baculosomes preincubated for 10 mins followed by cofactor addition measured every minute for 10 mins using diethoxyflourescein as substrate by CYPEX assay
[11] = target: T3, Cytochrome P450 3A4; assay: Inhibition of recombinant human CYP3A4 expressed in baculosomes preincubated for 10 mins followed by cofactor addition measured every minute for 10 mins using 7-benzyloxyquinoline as substrate by CYPEX assay
[12] = Fraction absorbed in portal vein cannulated Sprague-Dawley rat model; settings: in vivo
[13] = Volume of distribution at steady state in portal vein cannulated Sprague-Dawley rat model; settings: in vivo
[14] = Clearance in portal vein cannulated Sprague-Dawley rat blood; settings: whole blood
[15] = Half life in portal vein cannulated Sprague-Dawley rat model; settings: in vivo
[16] = Fraction unbound in Sprague-Dawley rat blood
[17] = Fraction unbound in Sprague-Dawley rat brain
[18] = Permeability across apical to basolateral side in human Caco2 cells; settings: Caco-2
[19] = in vivo; settings: Sprague-Dawley, rat, po
Description: Oral bioavailability in portal vein cannulated Sprague-Dawley rat model

[20] = in vitro; settings: rat, liver microsomes, CLH
[21] = in vitro; settings: human, liver microsomes, CLH
[22] = target: D(1A) dopamine receptor (Homo sapiens) (UniProt P21728); assay: Binding affinity to dopamine D1 receptor (unknown origin)
[23] = target: D(2) dopamine receptor (Homo sapiens, UniProt P14416); assay: Displacement of [3H]-spiperone from human dopamine D2 receptor expressed in CHO-K1 cell membranes after 120 mins by liquid scintillation counter method
[24] = target: T4, D(4) dopamine receptor (Homo sapiens) (UniProt P21917); assay: Binding affinity to dopamine D4 receptor (unknown origin)
T4 sequence (whole entry): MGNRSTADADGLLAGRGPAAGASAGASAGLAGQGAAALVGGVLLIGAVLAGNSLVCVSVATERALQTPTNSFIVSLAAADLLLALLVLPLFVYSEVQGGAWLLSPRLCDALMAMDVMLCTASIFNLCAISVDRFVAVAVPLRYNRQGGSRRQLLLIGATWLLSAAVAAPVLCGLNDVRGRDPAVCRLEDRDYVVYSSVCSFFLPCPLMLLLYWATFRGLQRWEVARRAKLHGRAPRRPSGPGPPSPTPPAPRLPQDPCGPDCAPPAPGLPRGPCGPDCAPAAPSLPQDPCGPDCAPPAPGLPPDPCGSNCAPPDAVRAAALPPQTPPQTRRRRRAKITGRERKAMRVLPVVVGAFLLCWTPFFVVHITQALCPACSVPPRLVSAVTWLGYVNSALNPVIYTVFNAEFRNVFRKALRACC

Sequence of D(2) dopamine receptor (P14416 whole entry): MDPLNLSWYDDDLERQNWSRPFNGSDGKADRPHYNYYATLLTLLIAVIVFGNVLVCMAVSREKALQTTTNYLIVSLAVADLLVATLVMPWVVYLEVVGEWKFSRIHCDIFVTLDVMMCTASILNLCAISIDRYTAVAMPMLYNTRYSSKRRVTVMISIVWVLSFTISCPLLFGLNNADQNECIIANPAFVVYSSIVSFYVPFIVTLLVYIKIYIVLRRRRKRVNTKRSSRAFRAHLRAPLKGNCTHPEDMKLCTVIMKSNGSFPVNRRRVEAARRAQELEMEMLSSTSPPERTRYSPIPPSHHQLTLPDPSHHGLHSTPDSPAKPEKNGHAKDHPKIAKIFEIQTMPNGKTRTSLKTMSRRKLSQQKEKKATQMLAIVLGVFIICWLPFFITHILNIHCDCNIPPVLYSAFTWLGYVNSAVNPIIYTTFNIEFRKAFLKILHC
Sequence of Cytochrome P450 2C19 (P33261 whole entry): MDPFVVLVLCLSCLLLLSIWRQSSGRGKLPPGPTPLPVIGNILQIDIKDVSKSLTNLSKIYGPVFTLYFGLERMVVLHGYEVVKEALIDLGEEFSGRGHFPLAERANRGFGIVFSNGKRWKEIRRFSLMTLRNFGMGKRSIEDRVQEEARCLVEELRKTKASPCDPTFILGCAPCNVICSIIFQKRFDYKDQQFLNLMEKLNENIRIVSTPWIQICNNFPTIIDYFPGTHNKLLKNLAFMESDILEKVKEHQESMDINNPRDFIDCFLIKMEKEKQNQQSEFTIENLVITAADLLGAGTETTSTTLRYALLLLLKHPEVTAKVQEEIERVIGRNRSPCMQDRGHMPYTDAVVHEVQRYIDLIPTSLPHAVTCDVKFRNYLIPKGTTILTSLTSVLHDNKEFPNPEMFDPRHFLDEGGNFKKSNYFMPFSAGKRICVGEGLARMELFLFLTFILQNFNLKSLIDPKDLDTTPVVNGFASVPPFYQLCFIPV
Sequence of Cytochrome P450 2D6 (P10635 whole entry): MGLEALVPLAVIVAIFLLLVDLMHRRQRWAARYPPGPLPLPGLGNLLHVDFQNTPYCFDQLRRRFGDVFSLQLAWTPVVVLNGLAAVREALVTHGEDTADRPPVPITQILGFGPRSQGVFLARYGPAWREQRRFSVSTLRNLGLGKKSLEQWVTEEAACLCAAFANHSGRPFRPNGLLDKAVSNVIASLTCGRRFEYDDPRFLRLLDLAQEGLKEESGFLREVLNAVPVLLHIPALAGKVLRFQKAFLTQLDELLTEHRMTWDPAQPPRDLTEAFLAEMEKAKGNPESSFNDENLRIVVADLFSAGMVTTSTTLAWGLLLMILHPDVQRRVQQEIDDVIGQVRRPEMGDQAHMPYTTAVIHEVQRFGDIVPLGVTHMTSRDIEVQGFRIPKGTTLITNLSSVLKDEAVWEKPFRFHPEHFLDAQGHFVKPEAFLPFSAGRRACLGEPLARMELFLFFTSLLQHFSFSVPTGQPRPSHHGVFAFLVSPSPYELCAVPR
Sequence of D(3) dopamine receptor (P35462 whole entry): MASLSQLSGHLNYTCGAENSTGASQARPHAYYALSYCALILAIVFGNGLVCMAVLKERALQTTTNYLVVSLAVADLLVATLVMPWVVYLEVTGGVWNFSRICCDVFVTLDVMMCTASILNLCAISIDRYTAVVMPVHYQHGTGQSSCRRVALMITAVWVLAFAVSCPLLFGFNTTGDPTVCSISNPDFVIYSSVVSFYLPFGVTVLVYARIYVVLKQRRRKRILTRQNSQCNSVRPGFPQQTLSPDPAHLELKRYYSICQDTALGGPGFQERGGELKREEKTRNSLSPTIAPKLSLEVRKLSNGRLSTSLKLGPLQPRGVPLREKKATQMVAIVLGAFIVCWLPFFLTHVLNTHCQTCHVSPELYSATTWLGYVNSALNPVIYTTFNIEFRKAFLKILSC
Sequence of Cytochrome P450 2C9 (P11712 whole entry): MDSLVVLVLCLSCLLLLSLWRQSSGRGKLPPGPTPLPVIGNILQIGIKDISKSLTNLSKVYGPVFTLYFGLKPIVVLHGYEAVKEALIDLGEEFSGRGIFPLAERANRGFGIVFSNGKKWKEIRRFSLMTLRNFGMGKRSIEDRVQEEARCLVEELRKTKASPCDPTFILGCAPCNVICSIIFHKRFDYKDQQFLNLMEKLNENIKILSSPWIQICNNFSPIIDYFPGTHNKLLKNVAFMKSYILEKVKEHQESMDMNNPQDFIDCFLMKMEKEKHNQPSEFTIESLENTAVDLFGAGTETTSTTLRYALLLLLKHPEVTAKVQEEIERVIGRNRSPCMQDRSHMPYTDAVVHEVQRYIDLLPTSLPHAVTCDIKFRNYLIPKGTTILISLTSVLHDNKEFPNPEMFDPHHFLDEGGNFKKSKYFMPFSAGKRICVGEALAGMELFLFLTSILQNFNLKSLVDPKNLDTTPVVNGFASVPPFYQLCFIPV
T3 sequence (P08684 whole entry): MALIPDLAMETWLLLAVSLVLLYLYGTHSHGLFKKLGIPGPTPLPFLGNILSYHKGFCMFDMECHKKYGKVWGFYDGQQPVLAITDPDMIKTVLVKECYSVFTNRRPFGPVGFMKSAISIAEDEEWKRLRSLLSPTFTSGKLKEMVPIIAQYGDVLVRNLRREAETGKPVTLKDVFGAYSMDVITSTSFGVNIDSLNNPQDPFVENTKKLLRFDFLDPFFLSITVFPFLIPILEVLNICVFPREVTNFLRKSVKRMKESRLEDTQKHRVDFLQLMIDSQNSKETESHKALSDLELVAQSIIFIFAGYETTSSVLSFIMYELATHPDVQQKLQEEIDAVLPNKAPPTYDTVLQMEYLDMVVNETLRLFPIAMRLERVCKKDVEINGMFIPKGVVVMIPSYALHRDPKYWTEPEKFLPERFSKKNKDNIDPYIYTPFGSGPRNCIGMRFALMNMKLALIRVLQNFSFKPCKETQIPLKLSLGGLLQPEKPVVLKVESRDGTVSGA
Sequence of Muscarinic acetylcholine receptor M3 (P20309 whole entry): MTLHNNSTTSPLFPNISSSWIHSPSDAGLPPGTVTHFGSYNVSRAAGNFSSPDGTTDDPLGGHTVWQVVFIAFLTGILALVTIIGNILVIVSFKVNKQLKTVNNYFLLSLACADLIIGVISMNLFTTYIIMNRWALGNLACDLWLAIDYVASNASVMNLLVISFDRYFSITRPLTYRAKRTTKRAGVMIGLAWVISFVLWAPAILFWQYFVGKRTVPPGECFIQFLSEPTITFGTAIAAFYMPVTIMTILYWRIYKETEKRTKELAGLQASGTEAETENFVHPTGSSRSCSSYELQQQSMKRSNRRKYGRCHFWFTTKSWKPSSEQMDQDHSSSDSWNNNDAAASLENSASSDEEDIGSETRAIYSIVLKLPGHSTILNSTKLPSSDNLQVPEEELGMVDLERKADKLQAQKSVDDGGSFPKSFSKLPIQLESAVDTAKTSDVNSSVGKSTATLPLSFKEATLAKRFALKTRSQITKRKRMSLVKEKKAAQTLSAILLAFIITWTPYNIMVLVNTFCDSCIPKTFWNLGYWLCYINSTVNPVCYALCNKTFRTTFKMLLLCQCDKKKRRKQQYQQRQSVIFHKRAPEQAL
Sequence of D(1A) dopamine receptor (Homo sapiens) (P21728 whole entry): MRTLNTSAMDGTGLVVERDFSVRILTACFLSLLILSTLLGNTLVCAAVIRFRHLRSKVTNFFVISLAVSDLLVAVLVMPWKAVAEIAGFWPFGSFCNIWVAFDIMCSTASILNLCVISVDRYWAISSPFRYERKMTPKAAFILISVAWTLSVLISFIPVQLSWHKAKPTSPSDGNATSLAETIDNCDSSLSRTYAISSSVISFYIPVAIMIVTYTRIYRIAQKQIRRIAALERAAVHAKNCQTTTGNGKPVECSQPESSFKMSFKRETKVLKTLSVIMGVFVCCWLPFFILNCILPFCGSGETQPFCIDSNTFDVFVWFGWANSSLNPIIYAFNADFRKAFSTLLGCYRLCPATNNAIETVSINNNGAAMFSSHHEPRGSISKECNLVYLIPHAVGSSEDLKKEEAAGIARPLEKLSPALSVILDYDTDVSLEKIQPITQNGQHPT

Row | Structure (SMILES) | Ki [2] [µM] | IC50 [6] [µM] | IC50 [7] [µM] | IC50 [8] [µM] | IC50 [9] [µM] | IC50 [10] [µM] | IC50 [11] [µM] | microsomal CLint at 0.5 µM [20] [µL/min/mg] | microsomal CLint at 0.5 µM [21] [µL/min/mg] | Ki [23] [µM] | further results
1 | Cn1c(SCCCN2CC3CCN(c4ccc(C(F)(F)F)cc4)C3C2)nnc1-c1cc[nH]c(=O)c1 (racemic) |  |  |  |  |  |  |  |  |  |  | Selectivity ratio [1]: > 100
2 | Cn1c(SCCCN2CC3CCN(c4ccccc4)C3C2)nnc1C1CCOCC1 (stereo in doubt; 62a) | 0.00631 | > 17 | > 17 | > 17 | > 17 | > 17 | > 17 | 272 | 26 |  | Ki [3]: 1.02 µM; Ki [4]: 1.45 µM; solubility [5]: > 2 mg/mL; Fa [12]: 5.5%; Vd [13]: 0.44 L/kg; clearance [14]: 1.2 L/h/kg; half-life [15]: 18 min; fraction unbound [16]: 0.31; fraction unbound [17]: 0.33; permeability [18]: permeable; bioavailability [19]: < 1%
3 | Cn1c(SCCCN2CC3CCN(c4ccc(C(F)(F)F)cc4)C3C2)nnc1-c1cc[nH]c(=O)c1 (stereo in doubt; 55b) |  |  |  |  |  |  |  |  |  |  | Activity [22]: inactive; Selectivity ratio [1]: > 250
4 | Cn1c(SCCCN2CC3CCN(c4ccccc4C(F)(F)F)C3C2)nnc1-c1cccnc1 (stereo in doubt; 52a) [listing 1 of 2 here] |  | > 3 | > 3 | > 3 | > 3 | > 3 | 0.92 | > 750 | > 750 | 0.398 | Ki [3]: 0.631 µM; Ki [4]: 2.19 µM
5 | Cn1c(SCCCN2CC3CCN(c4ccc(C(F)(F)F)cc4)C3C2)nnc1-c1ccc(=O)n(C)c1 (stereo in doubt; 57a) |  |  |  |  |  |  |  | 23 | 152 |  | permeability [18]: 39 nm/s
6 | CC(C)Oc1ccccc1N1CCC2CN(CCCSc3nnc(-c4cnccn4)n3C)CC21 (stereo in doubt; 35b) | 0.00794 | > 1 | > 1 | > 1 | > 1 | > 1 | > 1 | > 750 | > 750 | 0.251 | fraction unbound [16]: 0.024; fraction unbound [17]: 0.13
7 | Cn1c(SCCCN2CC3CCN(c4ccccc4C(F)(F)F)C3C2)nnc1-c1cccnc1 (stereo in doubt; 52a) [listing 2 of 2 here] |  |  |  |  |  |  |  |  |  |  | Activity [22]: inactive; Activity [24]: inactive
8 | Cc1ncoc1-c1nnc(SCCCN2CC3CCN(c4ccc(C(F)(F)F)cc4)C3C2)n1C.Cl (stereo unspecified) |  |  |  |  |  |  |  |  |  |  | solubility [5]: 0.3 mg/mL
9 | Cn1c(SCCCN2CC3CCN(c4ccc(F)cc4F)C3C2)nnc1-c1cnccn1 (stereo in doubt; 36b) | 0.00398 | > 1 | > 1 | > 1 | > 1 | > 1 | > 1 | > 650 | > 650 | 0.316 | 
10 | Cn1c(SCCCN2CC3CCN(c4ccc(C(F)(F)F)cc4)C3C2)nnc1-c1cnccn1 (stereo in doubt; 17b) |  | > 2 | > 2 | > 2 | > 2 | > 2 | > 2 | > 700 | > 700 | 0.158 | 
